Data as given in PubChem BioAssay (NCI).
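Tested at 5 concentrations; 48 h exposure; 96-well plates; endpoints linearly interpolated, else capped at highest concentration. TGI denotes the concentration required for complete inhibition of growth.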

Assays:
Assay in all cases: NCI tumour cell line growth inhibition, 48 h
SK-OV-3 ovarian = system: SK-OV-3 ovarian
NCI-H522 lung = system: NCI-H522 lung
MOLT-4 leukemia = system: MOLT-4 leukemia
HCT-15 colon = system: HCT-15 colon
OVCAR-4 ovarian = system: OVCAR-4 ovarian
SF-295 CNS = system: SF-295 CNS
XF 498 CNS = system: XF 498 CNS
NCI-H460 lung = system: NCI-H460 lung
U251 CNS = system: U251 CNS
A498 renal = system: A498 renal
DLD-1 colon = system: DLD-1 colon
SNB-78 CNS = system: SNB-78 CNS
COLO 205 colon = system: COLO 205 colon
OVCAR-3 ovarian = system: OVCAR-3 ovarian
DMS 114 small cell lung = system: DMS 114 small cell lung
HOP-18 NSCLC = system: HOP-18 NSCLC
LOX IMVI melanoma = system: LOX IMVI melanoma
MALME-3M melanoma = system: MALME-3M melanoma
SK-MEL-5 melanoma = system: SK-MEL-5 melanoma
KM12 colon = system: KM12 colon
LXFL 529 NSCLC = system: LXFL 529 NSCLC
NCI-H226 lung = system: NCI-H226 lung
CAKI-1 renal = system: CAKI-1 renal
HT29 colon = system: HT29 colon
SNB-19 CNS = system: SNB-19 CNS
A549 NSCLC = system: A549 NSCLC
SF-539 CNS = system: SF-539 CNS
M19-MEL melanoma = system: M19-MEL melanoma
UACC-257 melanoma = system: UACC-257 melanoma
IGROV1 ovarian = system: IGROV1 ovarian
SN12C renal = system: SN12C renal
RXF-631 renal = system: RXF-631 renal
HOP-62 NSCLC = system: HOP-62 NSCLC
HL-60(TB) leukemia = system: HL-60(TB) leukemia
HCT-116 colon = system: HCT-116 colon
UACC-62 melanoma = system: UACC-62 melanoma
DMS 273 small cell lung = system: DMS 273 small cell lung
K-562 leukemia = system: K-562 leukemia
TK-10 renal = system: TK-10 renal
RPMI-8226 leukemia = system: RPMI-8226 leukemia
SW-620 colon = system: SW-620 colon
OVCAR-5 ovarian = system: OVCAR-5 ovarian
HCC-2998 colon = system: HCC-2998 colon
OVCAR-8 ovarian = system: OVCAR-8 ovarian
786-0 renal = system: 786-0 renal
NCI-H23 lung = system: NCI-H23 lung
HOP-92 NSCLC = system: HOP-92 NSCLC
SF-268 CNS = system: SF-268 CNS
UO-31 renal = system: UO-31 renal
M14 melanoma = system: M14 melanoma
ACHN renal = system: ACHN renal
EKVX NSCLC = system: EKVX NSCLC
CCRF-CEM leukemia = system: CCRF-CEM leukemia
KM20L2 colon = system: KM20L2 colon
SK-MEL-28 melanoma = system: SK-MEL-28 melanoma
SR leukemia = system: SR leukemia
SNB-75 CNS = system: SNB-75 CNS
SK-MEL-2 melanoma = system: SK-MEL-2 melanoma

In the case of `O=C(CC(=O)c1cccc2ccccc12)C(=O)Nc1ccc(Cl)cc1`, the TGI (SK-OV-3 ovarian) is reported as > 100 µM, the TGI (NCI-H522 lung) is reported as > 100 µM and the TGI (MOLT-4 leukemia) is reported as > 100 µM. For the same molecule, the TGI (HCT-15 colon) was > 100 µM, the TGI (OVCAR-4 ovarian) was > 100 µM and the TGI (SF-295 CNS) was > 100 µM. For the same molecule, the TGI (XF 498 CNS) was > 100 µM, the TGI (NCI-H460 lung) was > 100 µM and the TGI (U251 CNS) was > 100 µM. For the same molecule, the TGI (A498 renal) was > 100 µM, the TGI (DLD-1 colon) was > 100 µM and the TGI (SNB-78 CNS) was > 100 µM. The TGI (COLO 205 colon) was > 100 µM, the TGI (OVCAR-3 ovarian) was > 100 µM and the TGI (DMS 114 small cell lung) was > 100 µM. For the same molecule, the TGI (HOP-18 NSCLC) was > 100 µM, the TGI (LOX IMVI melanoma) was > 100 µM and the TGI (MALME-3M melanoma) was > 100 µM. The TGI (SK-MEL-5 melanoma) was > 100 µM, the TGI (KM12 colon) was > 100 µM and the TGI (LXFL 529 NSCLC) was > 100 µM. The TGI (NCI-H226 lung) was > 100 µM, the TGI (CAKI-1 renal) was > 100 µM and the TGI (HT29 colon) was > 100 µM. For the same molecule, the TGI (SNB-19 CNS) was > 100 µM, the TGI (A549 NSCLC) was > 100 µM and the TGI (SF-539 CNS) was > 100 µM. For the same molecule, the TGI (M19-MEL melanoma) was > 100 µM, the TGI (UACC-257 melanoma) was > 100 µM and the TGI (IGROV1 ovarian) was > 100 µM. For the same molecule, the TGI (SN12C renal) was > 100 µM, the TGI (RXF-631 renal) was > 100 µM and the TGI (HOP-62 NSCLC) was > 100 µM. The TGI (HL-60(TB) leukemia) was > 100 µM, the TGI (HCT-116 colon) was > 100 µM and the TGI (UACC-62 melanoma) was > 100 µM. The TGI (DMS 273 small cell lung) was > 100 µM, the TGI (K-562 leukemia) was > 100 µM and the TGI (TK-10 renal) was > 100 µM. The TGI (RPMI-8226 leukemia) was > 100 µM, the TGI (SW-620 colon) was > 100 µM and the TGI (OVCAR-5 ovarian) was > 100 µM. The TGI (HCC-2998 colon) was > 100 µM, the TGI (OVCAR-8 ovarian) was > 100 µM and the TGI (786-0 renal) was > 100 µM. For the same molecule, the TGI (NCI-H23 lung) was > 100 µM, the TGI (HOP-92 NSCLC) was > 100 µM and the TGI (SF-268 CNS) was > 100 µM. The TGI (UO-31 renal) was > 100 µM, the TGI (M14 melanoma) was > 100 µM and the TGI (ACHN renal) was > 100 µM. The TGI (EKVX NSCLC) was > 100 µM, the TGI (CCRF-CEM leukemia) was > 100 µM and the TGI (KM20L2 colon) was > 100 µM.
`O=C(CCc1nc(=S)[nH][nH]1)Nc1ccc(Cl)c(Cl)c1` was tested, and the TGI (SK-OV-3 ovarian) was > 100 µM, the TGI (NCI-H522 lung) was 72.1 µM and the TGI (MOLT-4 leukemia) was > 100 µM. The TGI (HCT-15 colon) was 65.6 µM, the TGI (OVCAR-4 ovarian) was > 100 µM and the TGI (SF-295 CNS) was > 100 µM. For the same molecule, the TGI (XF 498 CNS) was > 100 µM, the TGI (NCI-H460 lung) was > 100 µM and the TGI (U251 CNS) was > 100 µM. The TGI (A498 renal) was > 100 µM, the TGI (DLD-1 colon) was > 100 µM and the TGI (SNB-78 CNS) was > 100 µM. The TGI (SK-MEL-28 melanoma) was > 100 µM, the TGI (COLO 205 colon) was > 100 µM and the TGI (OVCAR-3 ovarian) was > 100 µM. The TGI (DMS 114 small cell lung) was > 100 µM, the TGI (HOP-18 NSCLC) was > 100 µM and the TGI (SR leukemia) was > 100 µM. The TGI (MALME-3M melanoma) was > 100 µM, the TGI (SK-MEL-5 melanoma) was 55.9 µM and the TGI (SNB-75 CNS) was 75.5 µM. The TGI (KM12 colon) was > 100 µM, the TGI (LXFL 529 NSCLC) was > 100 µM and the TGI (NCI-H226 lung) was > 100 µM. For the same molecule, the TGI (CAKI-1 renal) was > 100 µM, the TGI (HT29 colon) was > 100 µM and the TGI (SNB-19 CNS) was > 100 µM. For the same molecule, the TGI (A549 NSCLC) was > 100 µM, the TGI (SF-539 CNS) was > 100 µM and the TGI (M19-MEL melanoma) was > 100 µM. The TGI (UACC-257 melanoma) was > 100 µM, the TGI (IGROV1 ovarian) was > 100 µM and the TGI (SN12C renal) was > 100 µM. For the same molecule, the TGI (RXF-631 renal) was > 100 µM, the TGI (HOP-62 NSCLC) was > 100 µM and the TGI (HL-60(TB) leukemia) was > 100 µM. The TGI (HCT-116 colon) was > 100 µM, the TGI (UACC-62 melanoma) was 22 µM and the TGI (DMS 273 small cell lung) was > 100 µM. For the same molecule, the TGI (K-562 leukemia) was > 100 µM, the TGI (TK-10 renal) was > 100 µM and the TGI (RPMI-8226 leukemia) was > 100 µM. The TGI (SW-620 colon) was > 100 µM, the TGI (OVCAR-5 ovarian) was > 100 µM and the TGI (OVCAR-8 ovarian) was > 100 µM. The TGI (786-0 renal) was > 100 µM, the TGI (NCI-H23 lung) was > 100 µM and the TGI (HOP-92 NSCLC) was > 100 µM. For the same molecule, the TGI (SK-MEL-2 melanoma) was 31.2 µM, the TGI (SF-268 CNS) was > 100 µM and the TGI (UO-31 renal) was > 100 µM. For the same molecule, the TGI (M14 melanoma) was > 100 µM, the TGI (ACHN renal) was > 100 µM and the TGI (EKVX NSCLC) was > 100 µM. The TGI (CCRF-CEM leukemia) was > 100 µM and the TGI (KM20L2 colon) was 31.6 µM.
